Structures can show the parent of a compound that is named as a salt.
Assays:
SMYD3 [1] = target: T1, SMYD3 (Homo sapiens (Human), UniProt Q9H7B4); test: SMYD3 cell assay (Trimethyl-MEKK2 In-Cell Western in 293T/17 cells transfected with MEKK2-flag and SMYD3); format: cell-based
Summary of the method: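 Methanol-fixed cells stained in-cell Western for trimethyl-MEKK2 and anti-flag. Ratio-based % inhibition against DMSO and background controls; IC50 by non-linear regression, triplicate wells.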

SMYD3 [2] = target: T1, SMYD3; test: SMYD3 biochemical assay (SMYD3 enzyme assay on MEKK2 protein substrate, 3H-SAM scintillation proximity assay); conditions: read-out: SMYD3 Biochem IC50
Summary of the method: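 Native full-length human SMYD3, expressed in E. coli, was preincubated with compound for 30 min at room temperature in 25 mM Tris-Cl pH 8.0, 1 mM TCEP, 0.005% BSG and 0.005% Tween 20. ³H-SAM plus GST-MEKK2 then started the reaction. It was stopped with unlabeled SAM (100 uM final), and methylated MEKK2 was read by SPA.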

[3] = Table 3A, average of n = 1 to n = 50, read-out: SMYD3 cell IC50
[4] = Table 3A, average of n = 1 to n = 50

T1 sequence (Q9H7B4 whole entry): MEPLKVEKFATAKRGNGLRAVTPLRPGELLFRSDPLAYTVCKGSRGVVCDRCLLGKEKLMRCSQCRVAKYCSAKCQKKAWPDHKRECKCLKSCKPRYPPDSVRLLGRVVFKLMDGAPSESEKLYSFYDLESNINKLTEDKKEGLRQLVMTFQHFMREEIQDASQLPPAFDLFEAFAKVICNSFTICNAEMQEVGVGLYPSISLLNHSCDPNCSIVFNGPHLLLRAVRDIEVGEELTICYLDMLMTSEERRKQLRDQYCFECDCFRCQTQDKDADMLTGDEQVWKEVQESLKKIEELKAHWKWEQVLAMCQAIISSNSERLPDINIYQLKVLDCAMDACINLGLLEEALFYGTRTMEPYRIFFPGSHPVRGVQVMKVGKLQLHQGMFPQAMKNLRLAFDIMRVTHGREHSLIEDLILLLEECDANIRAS

## CC(C)(N)c1ccc(S(=O)(=O)N2[C@@H]3CC[C@H]2C[C@@H](NC(=O)c2ccc4c(c2)CC(=O)N4)C3)cc1 [compound 612, N-((1R,3r,5S)-8-((4-(2-aminopropan-2-yl)phenyl)sulfonyl)-8-azabicyclo[3.2.1]octan-3-yl)-2-oxoindoline-5-carboxamide]
SMYD3 [1]; [3]
  IC50: 2.53 µM
SMYD3 [2]; [4]
  IC50: 0.0307 µM

## CC(C)(N)c1ccc(S(=O)(=O)N2[C@@H]3CC[C@H]2C[C@@H](NC(=O)c2cc4c(cc2Cl)NC(=O)C4)C3)cc1 [compound 613, N-((1R,3r,5S)-8-((4-(2-aminopropan-2-yl)phenyl)sulfonyl)-8-azabicyclo[3.2.1]octan-3-yl)-6-chloro-2-oxoindoline-5-carboxamide]
SMYD3 [1]; [3]
  IC50: 1.77 µM
SMYD3 [2]; [4]
  IC50: 0.0371 µM

## O=C1Cc2cc(C(=O)N[C@H]3C[C@H]4CC[C@@H](C3)N4S(=O)(=O)CCN3CCCC3)c(Cl)cc2N1 [compound 614, 6-chloro-2-oxo-N-((1R,3r,5S)-8-((2-(pyrrolidin-1-yl)ethyl)sulfonyl)-8-azabicyclo[3.2.1]octan-3-yl)indoline-5-carboxamide]
SMYD3 [1]; [3]
  IC50: 0.38 µM
SMYD3 [2]; [4]
  IC50: 0.046 µM

## O=C1Cc2cc(C(=O)N[C@H]3C[C@H]4CC[C@@H](C3)N4S(=O)(=O)CCN3CCCC3)ccc2N1 [compound 615, 2-oxo-N-((1R,3r,5S)-8-((2-(pyrrolidin-1-yl)ethyl)sulfonyl)-8-azabicyclo[3.2.1]octan-3-yl)indoline-5-carboxamide]
SMYD3 [1]; [3]
  IC50: 0.761 µM
SMYD3 [2]
  IC50: 0.0497 µM

## CCc1cnnc(C(=O)N[C@H]2C[C@H]3CC[C@@H](C2)N3S(=O)(=O)N2CCC(N)CC2)c1 [compound 616, N-[(1R,3r,5S)-8-(4-aminopiperidine-1-sulfonyl)-8-azabicyclo[3.2.1]octan-3-yl]-5-ethylpyridazine-3-carboxamide Trifluoroacetate]
SMYD3 [1]; [3]
  IC50: 0.54 µM
SMYD3 [2]
  IC50: 0.0499 µM

## CN1C(=O)Cc2cc(C(=O)N[C@H]3C[C@H]4CC[C@@H](C3)N4S(=O)(=O)CC3CCNCC3)c(Cl)cc21 [compound 617, 6-chloro-1-methyl-2-oxo-N-((1R,3r,5S)-8-((piperidin-4-ylmethyl)sulfonyl)-8-azabicyclo[3.2.1]octan-3-yl)indoline-5-carboxamide]
SMYD3 [1]; [3]
  IC50: 2.96 µM
SMYD3 [2]; [4]
  IC50: 0.0523 µM

## NC1CCN(S(=O)(=O)N2[C@@H]3CC[C@H]2C[C@@H](NC(=O)c2nnc(C4CC4)s2)C3)CC1 [compound 618, N-((1R,3r,5S)-8-((4-aminopiperidin-1-yl)sulfonyl)-8-azabicyclo[3.2.1]octan-3-yl)-5-cyclopropyl-1,3,4-thiadiazole-2-carboxamide]
SMYD3 [1]; [3]
  IC50: 0.348 µM
SMYD3 [2]; [4]
  IC50: 0.0558 µM

## CCc1cnnc(C(=O)N[C@H]2CCN(S(=O)(=O)N3CCC(N)CC3)[C@@H](C)C2)c1 [compound 619, N-((2S,4S)-1-((4-aminopiperidin-1-yl)sulfonyl)-2-methylpiperidin-4-yl)-5-ethylpyridazine-3-carboxamide]
SMYD3 [1]; [3]
  IC50: 0.468 µM
SMYD3 [2]; [4]
  IC50: 0.0596 µM

## O=C1Cc2cc(C(=O)NC3CCN(S(=O)(=O)CC4CCNCC4)CC3)ccc2N1 [compound 620, 2-oxo-N-[1-[(piperidin-4-ylmethane)sulfonyl]piperidin-4-yl]-2,3-dihydro-1H-indole-5-carboxamide Trifluoroacetate]
SMYD3 [1]; [3]
  IC50: ≥ 10 µM
SMYD3 [2]; [4]
  IC50: 0.0682 µM

## NCCCS(=O)(=O)N1CCC(NC(=O)c2cc3c(cc2Cl)NC(=O)C3)CC1 [compound 621, N-(1-((3-aminopropyl)sulfonyl)piperidin-4-yl)-6-chloro-2-oxoindoline-5-carboxamide]
SMYD3 [1]; [3]
  IC50: 6.84 µM
SMYD3 [2]; [4]
  IC50: 0.0775 µM

## N[C@H]1CC[C@H](S(=O)(=O)N2[C@@H]3CC[C@H]2C[C@@H](NC(=O)c2ccc4c(c2)OC(F)(F)O4)C3)CC1 [compound 623, N-((1R,3R,5S)-8-(((1r,4R)-4-aminocyclohexyl)sulfonyl)-8-azabicyclo[3.2.1]octan-3-yl)-2,2-difluorobenzo[d][1,3]dioxole-5-carboxamide]
SMYD3 [1]; [3]
  IC50: 0.896 µM
SMYD3 [2]; [4]
  IC50: 0.136 µM

## NCCCS(=O)(=O)N1CCC(NC(=O)c2ccc3c(c2)CC(=O)N3)CC1 [compound 624, N-(1-((3-aminopropyl)sulfonyl)piperidin-4-yl)-2-oxoindoline-5-carboxamide]
SMYD3 [1]; [3]
  IC50: ≥ 10 µM
SMYD3 [2]; [4]
  IC50: 0.159 µM

## NC1CCN(S(=O)(=O)N2[C@@H]3CC[C@H]2C[C@@H](NC(=O)c2ccc4c(c2)OC(F)(F)O4)C3)CC1 [compound 626, N-((1R,3r,5S)-8-((4-aminopiperidin-1-yl)sulfonyl)-8-azabicyclo[3.2.1]octan-3-yl)-2,2-difluorobenzo[d][1,3]dioxole-5-carboxamide]
SMYD3 [1]; [3]
  IC50: 2.97 µM
SMYD3 [2]; [4]
  IC50: 0.222 µM

## O=C(N[C@H]1C[C@H]2CC[C@@H](C1)N2S(=O)(=O)[C@H]1CC[C@H](NCc2ccccc2)CC1)c1ccc2c(c1)OC(F)(F)O2 [compound 627, N-((1R,3R,5S)-8-(((1r,4R)-4-(benzylamino)cyclohexyl)sulfonyl)-8-azabicyclo[3.2.1]octan-3-yl)-2,2-difluorobenzo[d][1,3]dioxole-5-carboxamide]
SMYD3 [1]; [3]
  IC50: 1.54 µM
SMYD3 [2]; [4]
  IC50: 0.225 µM

## O=C(N[C@H]1C[C@H]2CC[C@@H](C1)N2S(=O)(=O)CC1CCNCC1)c1ccc2c(c1)OC(F)(F)O2 [compound 628, 2,2-difluoro-N-((1R,3r,5S)-8-((piperidin-4-ylmethyl)sulfonyl)-8-azabicyclo[3.2.1]octan-3-yl)benzo[d][1,3]dioxole-5-carboxamide]
SMYD3 [1]; [3]
  IC50: 3.62 µM
SMYD3 [2]; [4]
  IC50: 0.232 µM

## CCc1cc(C(=O)N[C@@H]2CCN(S(=O)(=O)N3CCC(N)CC3)[C@@H](C)C2)ns1 [compound 629, N-((2S,4R)-1-(4-aminopiperidin-1-ylsulfonyl)-2-methylpiperidin-4-yl)-5-ethyl-1,2-thiazole-3-carboxamide]
SMYD3 [1]; [3]
  IC50: 2.08 µM
SMYD3 [2]; [4]
  IC50: 0.326 µM

## CN1CCC(CS(=O)(=O)N2[C@@H]3CC[C@H]2C[C@@H](NC(=O)c2ccc4c(c2)OC(F)(F)O4)C3)CC1 [compound 630, 2,2-difluoro-N-((1R,3r,5S)-8-(((1-methylpiperidin-4-yl)methyl)sulfonyl)-8-azabicyclo[3.2.1]octan-3-yl)benzo[d][1,3]dioxole-5-carboxamide]
SMYD3 [1]; [3]
  IC50: 6.55 µM
SMYD3 [2]; [4]
  IC50: 0.361 µM

## C[C@H]1C[C@H](NC(=O)c2nnc(C3CC3)s2)CCN1S(=O)(=O)N1CCC(N)CC1 [compound 631, N-((2S,4R)-1-((4-aminopiperidin-1-yl)sulfonyl)-2-methylpiperidin-4-yl)-5-cyclopropyl-1,3,4-thiadiazole-2-carboxamide]
SMYD3 [1]; [3]
  IC50: 4.9 µM
SMYD3 [2]; [4]
  IC50: 0.47 µM

## CC(=O)Nc1ccc(S(=O)(=O)N2CC[C@H](NC(=O)c3ccc4c(c3)CC(=O)N4)C[C@@H]2C)cc1 [compound 632, N-((2S,4S)-1-(4-acetamidophenylsulfonyl)-2-methylpiperidin-4-yl)-2-oxoindoline-5-carboxamide]
SMYD3 [1]; [3]
  IC50: ≥ 10 µM
SMYD3 [2]; [4]
  IC50: 0.526 µM

## NC1CCN(S(=O)(=O)N2[C@@H]3CC[C@H]2C[C@@H](NC(=O)c2cc(C4CC4)[nH]n2)C3)CC1 [compound 633, N-((1R,3r,5S)-8-((4-aminopiperidin-1-yl)sulfonyl)-8-azabicyclo[3.2.1]octan-3-yl)-5-cyclopropyl-1H-pyrazole-3-carboxamide]
SMYD3 [1]; [3]
  IC50: ≥ 10 µM
SMYD3 [2]; [4]
  IC50: 0.529 µM

## C[C@@H]1CN(S(=O)(=O)N2CCC(N)CC2)CC[C@@H]1NC(=O)c1cc2c(cc1Cl)NC(=O)C2 [compound 634, N-((3R,4S)-1-((4-aminopiperidin-1-yl)sulfonyl)-3-methylpiperidin-4-yl)-6-chloro-2-oxoindoline-5-carboxamide]
SMYD3 [1]; [3]
  IC50: 0.972 µM
SMYD3 [2]; [4]
  IC50: 0.529 µM

## CCc1cccc(C(=O)N[C@H]2C[C@H]3CC[C@@H](C2)N3S(=O)(=O)CC2CCNCC2)c1 [compound 635, 3-ethyl-N-((1R,3r,5S)-8-((piperidin-4-ylmethyl)sulfonyl)-8-azabicyclo[3.2.1]octan-3-yl)benzamide]
SMYD3 [1]; [3]
  IC50: ≥ 10 µM
SMYD3 [2]; [4]
  IC50: 0.62 µM

## NC1CCN(S(=O)(=O)N2[C@@H]3CC[C@H]2C[C@@H](NC(=O)c2ccc4c(c2)OCC(=O)N4)C3)CC1 [compound 636, N-((1R,3r,5S)-8-((4-aminopiperidin-1-yl)sulfonyl)-8-azabicyclo[3.2.1]octan-3-yl)-3-oxo-3,4-dihydro-2H-benzo[b][1,4]oxazine-7-carboxamide]
SMYD3 [1]
  IC50: ≥ 10 µM
SMYD3 [2]; [4]
  IC50: 0.819 µM

## NC1CCN(S(=O)(=O)N2[C@@H]3CC[C@H]2C[C@@H](NC(=O)c2cnn(C4CC4)c2)C3)CC1 [compound 637, N-((1R,3r,5S)-8-((4-aminopiperidin-1-yl)sulfonyl)-8-azabicyclo[3.2.1]octan-3-yl)-1-cyclopropyl-1H-pyrazole-4-carboxamide]
SMYD3 [1]; [3]
  IC50: ≥ 10 µM
SMYD3 [2]; [4]
  IC50: 0.839 µM

## N[C@H]1CC[C@H](C(=O)N2[C@@H]3CC[C@H]2C[C@@H](NC(=O)c2ccc4c(c2)CC(=O)N4)C3)CC1 [compound 638, N-((1R,3R,5S)-8-((1r,4R)-4-aminocyclohexane-1-carbonyl)-8-azabicyclo[3.2.1]octan-3-yl)-2-oxoindoline-5-carboxamide]
SMYD3 [1]; [3]
  IC50: ≥ 10 µM
SMYD3 [2]; [4]
  IC50: 0.962 µM

## C[C@H]1C[C@@H](NC(=O)c2cnn(C3CC3)c2)CCN1S(=O)(=O)N1CCC(N)CC1 [compound 639, N-((2S,4S)-1-((4-aminopiperidin-1-yl)sulfonyl)-2-methylpiperidin-4-yl)-1-cyclopropyl-1H-pyrazole-4-carboxamide]
SMYD3 [1]; [3]
  IC50: ≥ 10 µM
SMYD3 [2]; [4]
  IC50: 1 µM

## CC(=O)Nc1ccc(S(=O)(=O)N2CCC(NC(=O)c3cc4c(cc3Cl)NC(=O)C4)CC2)cc1 [compound 641, N-(1-((4-acetamidophenyl)sulfonyl)piperidin-4-yl)-6-chloro-2-oxoindoline-5-carboxamide]
SMYD3 [1]; [3]
  IC50: ≥ 10 µM
SMYD3 [2]; [4]
  IC50: 5.93 µM

From patent US10266526B2, “Substituted 1,2,3-triazoles as SMYD inhibitors for treating cancer” (EPIZYME, INC., priority 2014, dated 2019)
